Experimental data taken from ChEMBL document CHEMBL6134918, “Novel Indole and Pyrrolopyridine Derivatives as GPR17 Modulators for Treating Multiple Sclerosis” (ACS Med Chem Lett, 2025).
pIC50: −log10 of the molar value.

Biological target: Uracil nucleotide/cysteinyl leukotriene receptor (Homo sapiens, UniProt Q13304)
Experiment: Inhibition of full length GPR17 (unknown origin) stably expressed in human 1321N1 cells incubated for 15 mins by cAMP based HTRF assay
Format: functional, cell-based

Chain of Uracil nucleotide/cysteinyl leukotriene receptor (Q13304 whole entry): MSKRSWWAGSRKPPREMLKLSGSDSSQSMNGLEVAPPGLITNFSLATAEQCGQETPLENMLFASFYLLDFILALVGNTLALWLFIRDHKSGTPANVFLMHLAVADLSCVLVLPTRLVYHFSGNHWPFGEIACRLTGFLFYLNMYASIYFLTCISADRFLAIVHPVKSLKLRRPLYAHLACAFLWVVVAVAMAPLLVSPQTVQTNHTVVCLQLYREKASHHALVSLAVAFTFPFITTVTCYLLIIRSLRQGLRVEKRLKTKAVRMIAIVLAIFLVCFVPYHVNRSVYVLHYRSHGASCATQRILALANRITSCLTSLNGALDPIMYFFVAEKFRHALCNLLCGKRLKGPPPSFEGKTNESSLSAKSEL

Row | SMILES | pIC50
1 | CCCn1ncc(NS(=O)(=O)c2c[nH]c3cc(Cl)ccc23)c1C#N | > 7.00
2 | N#Cc1c(NS(=O)(=O)c2c[nH]c3cc(Cl)ccc23)cnn1CCCl | > 7.00
3 | O=S(=O)(Nc1ncc(C(F)(F)F)s1)c1c[nH]c2cc(Cl)ccc12 | > 7.00
4 | N#Cc1c(NS(=O)(=O)c2c[nH]c3cc(Cl)ccc23)cnn1CCC(F)(F)F | > 7.00

Other lines, results leading:

Row | pIC50 | SMILES
5 | > 7.00 | Cc1snc(NS(=O)(=O)c2c[nH]c3cc(Cl)ccc23)c1Cl
6 | > 7.00 | Cc1onc(NS(=O)(=O)c2c[nH]c3cc(Cl)c(Cl)cc23)c1Cl
